Assay type in all cases: cell-based
In test [1] the test system is SPI1 type III protein secretion of SopE'-'Bla by Salmonella enterica. Briefly: Primary assay: Type III protein secretion of the chimeric SopE'-'Bla polypeptide by Salmonella enterica. The conditions noted are these: read-out: SopE IC50(uM). In short, it runs like this: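 S. enterica grown under SPI1-favouring conditions was induced to express SopE′-′Bla (SopE secretion signal fused to signal-less TEM-1 β-lactamase) and cultured with or without compound for a set time. Secreted reporter was quantified by colorimetric hydrolysis of cell-impermeant nitrocefin added to the cultures.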

Test [2] deals with SPI1 type III protein secretion of SipB by S. enterica. Briefly: Secondary assay: Type III-dependent protein secretion of the SipB polypeptide by S. enterica. The conditions noted are these: Salmonella enterica, read-out: SipB IC50(uM). In outline:
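S. enterica cultured with or without inhibitor and induced for SipB production; after growth, cells pelleted and secreted SipB in supernatant measured by immunoblot with anti-SipB mouse monoclonal plus HRP anti-mouse and chemiluminescence, quantified by scanning imager. Inhibition expressed relative to untreated controls.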

Test [3] deals with Type III protein secretion of ExoU by P. aeruginosa PA103. Briefly: Tertiary assay: Type III-dependent secretion of ExoU by P. aeruginosa PA103. The conditions noted are these: Pseudomonas aeruginosa, read-out: ExoU IC50(uM). The source says: Tertiary assay: inhibition of Type III protein secretion of effectors from a Pseudomonas aeruginosa system. Type III protein secretion is used by P. aeruginosa to secrete several essential virulence determinants. One effector of the type III protein secretion system of P. aeruginosa PA 103 is the virulence determinants ExoU.
The amount of Type III-dependent secretion of ExoU by P. aeruginosa PA103 can be determined in a cell-based assay by quantification of the 73.9 kDa ExoU protein secreted into the extracellular medium. Such quantitation can be achieved by growing strain PA 103 in a deferrated medium in the presence of nitrilotriacetic acid (an inducer of Type III protein secretion in P. aeruginosa) and either in the presence or absence of putative inhibitors. After a prolonged growth period, the cells are sedimented and the supernatants concentrated by ammonium sulfate precipitation. The proteins in the resuspended pellets are separated by electrophoresis on SDS-polyacrylamide gels. After staining gels with Colloidal Blue™, the 73.9 kDa ExoU band is quantitated by scanning through an imager. The effects of inhibitors on the intensity of the ExoU band may be measured relative to that of untreated controls.

The term IC50 denotes the concentration at which inhibition is half-maximal. Regarding `CN(C)c1ccc(-c2nc(C(=O)N[C@H](Cc3ccc(Cl)cc3)C(=O)O)cc(N3CCC(c4ccccc4)CC3)n2)cc1` [Compound 14, (R)-3-(4-Chlorophenyl)-2-{[2-(4-dimethylaminophenyl)-6-(4-phenylpiperidin-1-yl)pyrimidine-4-carbonyl]amino}propionic acid], the concentration for half-maximal inhibition (IC50) was 1.8 µM in test [1], 27.6 µM in test [2] and > 100 µM in test [3].

As to `O=C(N[C@H](Cc1ccc(Cl)cc1)C(=O)O)c1cc(N2CCCc3ccccc32)nc(-c2ccc(Oc3ccccc3)cc2)n1` [Compound 16, (R)-3-(4-Chlorophenyl)-2-{[6-(3,4-dihydro-2H-quinolin-1-yl)-2-(4-phenoxy-phenyl)pyrimidine-4-carbonyl]amino}propionic acid], the IC50 in test [1] was found to be 6.2 µM; in test [2], 10.2 µM; in test [3], 62.2 µM.

Take `O=C(N[C@@H](CSCc1ccccc1)C(=O)O)c1cc(N2CCC(c3ccc(F)cc3)CC2)nc(-c2ccc(C(F)(F)F)cc2)n1` [Compound 22, (R)-3-Benzylsulfanyl-2-{[6-[4-(4-fluorophenyl)piperidin-1-yl]-2-(4-trifluoromethylphenyl)pyrimidine-4-carbonyl]amino}propionic acid]: the values for the IC50 in test [1], in test [2] and in test [3] were 1.8 µM, > 100 µM and 52.6 µM, respectively.

`O=C(NC(Cc1ccc(Cl)cc1)C(=O)O)c1cc(-c2cccc(C(F)(F)F)c2)nc(N2CCN(c3ccccc3)CC2)n1` (stereo in doubt) [Compound 31, (R)-3-(4-Chlorophenyl)-2-{[2-(4-phenyl-piperazin-1-yl)-6-(3-trifluoromethylphenyl)pyrimidine-4-carbonyl]amino}propionic acid]: the IC50 turned out to be 4.1 µM in test [1], 13.3 µM in test [2] and 88.7 µM in test [3].

As to `O=C(N[C@@H](CSCc1ccccc1)C(=O)O)c1cc(N2CCN(c3ccccc3)CC2)nc(-c2ccc(F)c(F)c2)n1` [Compound 19, (R)-3-Benzylsulfanyl-2-{[2-(3,4-difluorophenyl)-6-(4-phenyl-piperazin-1-yl)-pyrimidine-4-carbonyl]amino}propionic acid], the IC50 in test [1] came to 6.4 µM; in test [2], 8 µM; in test [3], 67.8 µM.

For `C[C@@H](OCc1ccccc1)[C@H](NC(=O)c1cc(N2CCCCC2)nc(N2CCC(c3ccccc3)CC2)n1)C(=O)O` [Compound 30, (2S,3R)-3-Benzyloxy-2-{[2-(4-phenylpiperidin-1-yl)-6-piperidin-1-yl-pyrimidine-4-carbonyl]amino}butyric acid], the IC50 in test [1] is 4.6 µM; in test [2] it was 17.9 µM; in test [3], > 100 µM.

`O=C(N[C@@H](CSCc1ccccc1)C(=O)O)c1cc(N2CCC(c3ccccc3)CC2)nc(-c2ccc(C(F)(F)F)cc2)n1` [Compound 21, (R)-3-Benzylsulfanyl-2-{[6-(4-phenylpiperidin-1-yl)-2-(4-trifluoromethylphenyl)-pyrimidine-4-carbonyl]amino}propionic acid]: the IC50 in test [1] is 3.6 µM; in test [2], 24.8 µM; in test [3], 39 µM.

On to `O=C(N[C@@H](COCc1ccccc1)C(=O)O)c1cc(N2CCN(c3nccc(C(F)(F)F)n3)CC2)nc(-c2ccoc2)n1` [Compound 60, (S)-3-Benzyloxy-2-({2-furan-3-yl-6-[4-(4-trifluoromethylpyrimidin-2-yl)piperazin-1yl]-pyrimidine-4-carbonyl}amino)propionic acid], for which the IC50 was 16.4 µM in test [1], 15.6 µM in test [2] and > 100 µM in test [3].

`O=C(N[C@@H](CSCc1ccccc1)C(=O)O)c1cc(N2CCN(c3ccccc3)CC2)nc(-c2ccc(Cl)cc2)n1` [Compound 24, (R)-3-Benzylsulfanyl-2-{[2-(4-chlorophenyl)-6-(4-phenyl-piperazin-1-yl)-pyrimidine-4-carbonyl]amino}propionic acid]: the values for the IC50 in test [1], in test [2] and in test [3] were 5.45 µM, 39.2 µM and 46.9 µM, respectively.

With `CC1CCN(c2nc(C(=O)N[C@@H](CSCc3ccccc3)C(=O)O)cc(N3CCN(c4ccccc4)CC3)n2)CC1` [Compound 27, (R)-3-Benzylsulfanyl-2-{[2-(4-methylpiperidin-1-yl)-6-(4-phenyl-piperazin-1-yl)-pyrimidine-4-carbonyl]amino}propionic acid], the IC50 in test [1] was 5.3 µM; in test [2], 8.8 µM; in test [3] it was > 100 µM.

As to `CN(C)c1ccc(-c2nc(C(=O)N[C@H](Cc3ccc(Cl)cc3)C(=O)O)cc(N3CCc4ccccc4C3)n2)cc1` [Compound 6, (R)-3-(4-Chlorophenyl)-2-{[6-(3,4-dihydro-1H-isoquinolin-2-yl)-2-(4-dimethylaminophenyl)pyrimidine-4-carbonyl]amino}propionic acid], the 50% inhibitory concentration (IC50) in test [1] came out at 4.5 µM; in test [2] it was 50 µM; in test [3] it was 68.4 µM.

As to `O=C(N[C@@H](CSCc1ccccc1)C(=O)O)c1cc(N2CCC(c3ccccc3)CC2)nc(-c2ccc(F)c(F)c2)n1` [Compound 18, (R)-3-Benzylsulfanyl-2-{[2-(3,4-difluorophenyl)-6-(4-phenylpiperidin-1-yl)-pyrimidine-4-carbonyl]amino}propionic acid], the IC50 in test [1] stood at 19 µM; in test [2] it was 16.8 µM; in test [3], 46.6 µM.

As for `O=C(NC(Cc1ccc(Cl)cc1)C(=O)O)c1cc(-c2ccc(C(F)(F)F)cc2)nc(N2CCN(c3ccccn3)CC2)n1` (stereo not drawn) [Compound 43, 3-(4-Chlorophenyl)-2-{[2-(4-pyridin-2-yl-piperazin-1-yl)-6-(4-trifluoromethyl-phenyl)pyrimidine-4-carbonyl]amino}propionic acid], the IC50 was 8.1 µM in test [1], 74.2 µM in test [2] and > 100 µM in test [3].

On to `CC1CCN(c2cc(C(=O)N[C@@H](COCc3ccccc3)C(=O)O)nc(-c3ccc(-c4ccccc4)cc3)n2)CC1` [Compound 41, (S)-3-Benzyloxy-2-{[2-biphenyl-4-yl-6-(4-methylpiperidin-1-yl)pyrimidine-4-carbonyl]amino}propionic acid], for which the IC50 was determined as 2.4 µM in test [1], 28.6 µM in test [2] and 67.4 µM in test [3].

For the compound `O=C(N[C@@H](CSCc1ccccc1)C(=O)O)c1cc(N2CCN(c3ccccc3)CC2)nc(Cl)n1` [Compound 26, (R)-3-Benzylsulfanyl-2-{[2-chloro-6-(4-phenyl-piperazin-1-yl)pyrimidine-4-carbonyl]amino}propionic acid], the IC50 in test [1] is 50.1 µM; in test [2] it was 46.8 µM; in test [3], > 100 µM.

On to `CC1CCN(c2cc(C(=O)NC(Cc3ccc(Cl)cc3)C(=O)O)nc(-c3ccc(-c4ccccc4)cc3)n2)CC1` (stereo not drawn) [Compound 42, 2-{[2-Biphenyl-4-yl-6-(4-methylpiperidin-1-yl)pyrimidine-4-carbonyl]amino}-3-(4-chlorophenyl)propionic acid], for which the IC50 was 4.8 µM in test [1], 22.3 µM in test [2] and > 100 µM in test [3].

For the compound `O=C(N[C@@H](COCc1ccccc1)C(=O)O)c1cc(N2CCN(c3nccc(C(F)(F)F)n3)CC2)nc(-c2ccc([N+](=O)[O-])cc2)n1` [Compound 51, (S)-3-Benzyloxy-2-({2-(4-nitrophenyl)-6-[4-(4-trifluoromethylpyrimidin-2-yl)-piperazin-1-yl]pyrimidine-4-carbonyl}amino)propionic acid], the IC50 stood at 1.9 µM in test [1], 84.5 µM in test [2] and 55 µM in test [3].
